The values below come from patent US8173145B2, “Formulation containing phosphate derivatives of electron transfer agents” (Vital Health Sciences Pty. Ltd., priority 2000, dated 2012).

The nature of this data set: foam stability / surface active properties test. Format: physicochemical. The conditions noted are these: 0.1 g in 10 ml distilled water, shaken; foam examined daily over four days. The method, then:
0.1 g of pure di-sodium mono-tocopheryl phosphate was dissolved in 10 ml of pure distilled water in a 50 ml cylindrical stoppered vessel.

As for `Cc1c(C)c2c(c(C)c1OP(=O)([O-])[O-])CC[C@@](C)(CCC[C@H](C)CCC[C@H](C)CCCC(C)C)O2.[Na+].[Na+]` [di-sodium mono-tocopheryl phosphate], the Foam stability entry is listed as “complete stability for one day”.
